“And” between values parts separate entries of the source, which are not always exact repeats. Identical values can stand only once.
Tested on: Angiotensin II vasopressor response
Experiment: AII challenge: antagonism of angiotensin II vasopressor response in conscious spontaneously hypertensive rats
Assay type: in vivo, rat (Male Okamoto-Aoki SHR)
Details: 3 mg/kg I.V.; for % Inhibition / Average Change: SHR n=2; for Response After AII / Change / Control Before AII: individual SHR
Text: By administering a compound of this invention to a rat, and then challenging with angiotensin II, a blockage of the vasopressor response is realized.
Conscious Male Okamoto-Aoki SHR, 16-20 weeks old, weighing approximately 330 g are purchased from Charles River Labs (Wilmington, Mass.). Conscious rats are restrained in a supine position with elastic tape. The area at the base of the tail is locally anesthetized by subcutaneous infiltration with 2% procaine. The ventral caudal artery and vein are isolated, and a cannula made of polyethylene (PE) 10-20 tubing (fused together by heat) is passed into the lower abdominal aorta and vena cava, respectively. The cannula is secured, heparinized (1,000 I.U./ml), sealed and the wound is closed. The animals are placed in plastic restraining cages in an upright position. The cannula is attached to a Statham P23Db pressure transducer, and pulsatile blood pressure is recorded to 10-15 minutes with a Gould Brush recorder. (Chan et al., (Drug Development Res., 18:75-94, 1989).
Angiotensin II (human sequence, Sigma Chem. Co., St. […] Then a test compound, vehicle or a known angiotensin II antagonist is administered i.v., i.p. or orally to each set of rats. The two doses of angiotensin II are given to each rat again at 30, 60, 90, 120, 180, 240 and 300 minutes post dosing the compound or vehicle. The vasopressor response of angiotensin II is measured for the increase in systolic blood pressure in mmHg. The percentage of antagonism or blockade of the vasopressor response of angiotensin II by a compound is calculated using the vasopressor response (increase in systolic blood pressure) of angiotensin II of each rat predosing the compound as 100%. A compound is considered active if at 30 mg/kg i.v. it antagonized at least 50% of the response.

[1] = AII 0.01 mcg/kg IV (so in the source), 60 min post dose
[2] = AII 0.01 mcg/kg IV (so in the source), 90 min post dose
[3] = AII 0.05 mcg/kg IV, 30 min post dose
[4] = AII 0.05 mcg/kg IV, 60 min post dose
[5] = AII 0.05 mcg/kg IV, 90 min post dose
[6] = AII 0.05 mcg/kg IV, 120 min post dose
[7] = AII 0.05 mcg/kg IV, 180 min post dose
[8] = AII 0.05 mcg/kg IV, 240 min post dose
[9] = AII 0.05 mcg/kg IV, 300 min post dose
[10] = AII 0.1 mcg/kg IV, 30 min post dose
[11] = AII 0.1 mcg/kg IV, 120 min post dose
[12] = AII 0.1 mcg/kg IV, 180 min post dose
[13] = AII 0.1 mcg/kg IV, 240 min post dose
[14] = AII 0.1 mcg/kg IV, 300 min post dose
[15] = AII 0.01 mcg/kg IV (so in the source), 60 min post dose, 3 mg/kg
[16] = AII 0.01 mcg/kg IV (so in the source), 90 min post dose, 3 mg/kg
[17] = AII 0.05 mcg/kg IV, 30 min post dose, 3 mg/kg
[18] = AII 0.05 mcg/kg IV, 60 min post dose, 3 mg/kg
[19] = AII 0.05 mcg/kg IV, 90 min post dose, 3 mg/kg
[20] = AII 0.05 mcg/kg IV, 120 min post dose, 3 mg/kg
[21] = AII 0.05 mcg/kg IV, 180 min post dose, 3 mg/kg
[22] = AII 0.05 mcg/kg IV, 240 min post dose, 3 mg/kg
[23] = AII 0.05 mcg/kg IV, 300 min post dose, 3 mg/kg
[24] = AII 0.1 mcg/kg IV, 30 min post dose, 3 mg/kg
[25] = AII 0.1 mcg/kg IV, 120 min post dose, 3 mg/kg
[26] = AII 0.1 mcg/kg IV, 180 min post dose, 3 mg/kg
[27] = AII 0.1 mcg/kg IV, 240 min post dose, 3 mg/kg
[28] = AII 0.1 mcg/kg IV, 300 min post dose, 3 mg/kg

## CCCCc1nc2ccc([C@@]3(C)NN[C@@H]4C(=O)N(C)C(=O)[C@@H]43)cc2c(=O)n1Cc1ccc(-c2ccccc2-c2nnn[nH]2)cc1 (relative stereo) [Example 10, (3-alpha,3aalpha,6aalpha)-3-[2-butyl-3,4-dihydro-4-oxo-3-[[2'-(1H-tetrazol-5-yl)-[1,1'-biphenyl]-4-yl]methyl]-6-quinazolinyl]-2,3,3a,6a-tetrahydro-3,5-dimethyl-pyrrolo[3,4-c]pyrazole-4,6(1H,5H)-dione]
[1]
  % Inhibition: 53%
  Average Change: 22.5 mmHg
  Response After AII: 250 mmHg
[2]
  % Inhibition: 47%
  Average Change: 25 mmHg
  Change: 25 mmHg
[3]
  % Inhibition: 66%
  Average Change: 16 mmHg
[4]
  % Inhibition: 68%
  Average Change: 15 mmHg
  Change: 15 mmHg
[5]
  % Inhibition: 63%
  Average Change: 17.5 mmHg
[6]
  % Inhibition: 47%
  Average Change: 25 mmHg
[7]
  % Inhibition: 47%
  Average Change: 25 mmHg
  Control Before AII: 210 mmHg
[8]
  % Inhibition: 47%
  Average Change: 25 mmHg
  Change: 25 mmHg
[9]
  % Inhibition: 32%
  Average Change: 32.5 mmHg
[10]
  % Inhibition: 53%
  Average Change: 22.5 mmHg
[11]
  % Inhibition: 47%
  Average Change: 25 mmHg
  Change: 25 mmHg
[12]
  % Inhibition: 37%
  Average Change: 30 mmHg
[13]
  % Inhibition: 40%
  Average Change: 28.5 mmHg
[14]
  % Inhibition: 23%
  Average Change: 36.5 mmHg
[15]
  Change: 25 mmHg and 20 mmHg
  Control Before AII: 225 mmHg and 230 mmHg
[16]
  Control Before AII: 225 mmHg and 230 mmHg
  Response After AII: 250 mmHg and 255 mmHg
[17]
  Change: 20 mmHg and 12 mmHg
  Control Before AII: 220 mmHg and 245 mmHg
  Response After AII: 240 mmHg and 257 mmHg
[18]
  Control Before AII: 220 mmHg and 225 mmHg
  Response After AII: 235 mmHg and 240 mmHg
[19]
  Change: 20 mmHg and 15 mmHg
  Control Before AII: 215 mmHg and 225 mmHg
  Response After AII: 235 mmHg and 240 mmHg
[20]
  Change: 20 mmHg and 30 mmHg
  Control Before AII: 215 mmHg and 225 mmHg
  Response After AII: 235 mmHg and 255 mmHg
[21]
  Change: 20 mmHg and 30 mmHg
  Response After AII: 230 mmHg and 240 mmHg
[22]
  Control Before AII: 210 mmHg and 230 mmHg
  Response After AII: 235 mmHg and 255 mmHg
[23]
  Change: 30 mmHg and 35 mmHg
  Control Before AII: 210 mmHg and 225 mmHg
  Response After AII: 240 mmHg and 260 mmHg
[24]
  Change: 20 mmHg and 25 mmHg
  Control Before AII: 225 mmHg and 240 mmHg
  Response After AII: 245 mmHg and 265 mmHg
[25]
  Control Before AII: 220 mmHg and 230 mmHg
  Response After AII: 245 mmHg and 255 mmHg
[26]
  Change: 40 mmHg and 20 mmHg
  Control Before AII: 210 mmHg and 235 mmHg
  Response After AII: 250 mmHg and 255 mmHg
[27]
  Change: 32 mmHg and 25 mmHg
  Control Before AII: 210 mmHg and 235 mmHg
  Response After AII: 242 mmHg and 260 mmHg
[28]
  Change: 40 mmHg and 33 mmHg
  Control Before AII: 210 mmHg and 227 mmHg
  Response After AII: 250 mmHg and 260 mmHg

Source: US5281603A, “Angiotensin II receptor blocking 2,3,6 substituted quinazolinones” (American Cyanamid Company, priority 1993, dated 1994)
